IC50 data for 27 compounds are collected here from patent publication US8536168B2 (Novartis AG, priority 2007, dated 2013).

Each structure is given as a SMILES string. Where two headings read alike, the source gives them in different places.

Experiment [1] deals with mouse Smoothened receptor (Mus musculus, UniProt P56726). Briefly: Smo binding assay, displacement of radio-labeled smoothened agonist, filter binding format (mouse). To be noted: displacement of small molecule agonist of Smoothened, read-out: Mouse Smo bdg., IC50. An excerpt: A Smo binding assay was developed using radio-labeled smoothened agonist for compound competition.
mouse Smoothened receptor, sequence (P56726 33-793): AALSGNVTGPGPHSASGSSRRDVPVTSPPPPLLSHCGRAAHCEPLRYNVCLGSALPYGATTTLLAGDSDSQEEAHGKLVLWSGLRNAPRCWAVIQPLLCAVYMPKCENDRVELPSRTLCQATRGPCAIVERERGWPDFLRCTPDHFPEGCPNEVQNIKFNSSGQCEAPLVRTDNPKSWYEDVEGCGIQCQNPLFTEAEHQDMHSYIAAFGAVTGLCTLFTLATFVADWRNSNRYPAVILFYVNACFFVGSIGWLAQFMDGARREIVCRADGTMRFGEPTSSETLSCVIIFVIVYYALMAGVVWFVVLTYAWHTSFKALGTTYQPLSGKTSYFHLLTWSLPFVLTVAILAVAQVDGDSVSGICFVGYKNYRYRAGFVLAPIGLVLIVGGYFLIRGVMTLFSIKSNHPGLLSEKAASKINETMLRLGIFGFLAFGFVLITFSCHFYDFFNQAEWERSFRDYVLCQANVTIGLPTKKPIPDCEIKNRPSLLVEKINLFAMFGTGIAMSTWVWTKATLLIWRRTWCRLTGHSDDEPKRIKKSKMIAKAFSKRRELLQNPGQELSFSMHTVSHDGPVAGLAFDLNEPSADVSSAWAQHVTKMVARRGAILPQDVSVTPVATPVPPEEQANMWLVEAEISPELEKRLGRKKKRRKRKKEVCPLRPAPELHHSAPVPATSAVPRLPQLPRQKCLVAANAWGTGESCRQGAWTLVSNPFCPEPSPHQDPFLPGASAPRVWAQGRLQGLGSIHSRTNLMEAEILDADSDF

Experiment [2] has as its target human Smoothened receptor (Homo sapiens, UniProt Q99835). Put plainly: Smo binding assay, displacement of radio-labeled smoothened agonist, filter binding format (human). To be noted: displacement of small molecule agonist of Smoothened, read-out: Human Smo bdg., IC50. An excerpt: A Smo binding assay was developed using radio-labeled smoothened agonist for compound competition. Table 9 lists the IC50 for displacement of a small molecule agonist of Smoothened determined in a filter binding format for the mouse and human Smoothened receptor.

Experiment [3] concerns Gli-luciferase activity. Put plainly: Reporter gene assay (RGA) in TMHh12 cells, antagonism of Gli-luciferase activity in the presence of a Smo agonist. Type of experiment: cell-based. On the procedure:
Activity of the compounds was evaluated using a reporter gene assay (RGA) in TMHh12 cells.
(In general: A reporter such as luciferase makes a cellular process visible.)

Setting [4] is: 25 nM small molecule Smo agonist, read-out: RGA (25 nM Smo agonist) IC50.
[5] abbreviates: read-out: RGA (1 nM Smo agonist) IC50, 1 nM small molecule Smo agonist.

human Smoothened receptor, sequence (Q99835 28-787): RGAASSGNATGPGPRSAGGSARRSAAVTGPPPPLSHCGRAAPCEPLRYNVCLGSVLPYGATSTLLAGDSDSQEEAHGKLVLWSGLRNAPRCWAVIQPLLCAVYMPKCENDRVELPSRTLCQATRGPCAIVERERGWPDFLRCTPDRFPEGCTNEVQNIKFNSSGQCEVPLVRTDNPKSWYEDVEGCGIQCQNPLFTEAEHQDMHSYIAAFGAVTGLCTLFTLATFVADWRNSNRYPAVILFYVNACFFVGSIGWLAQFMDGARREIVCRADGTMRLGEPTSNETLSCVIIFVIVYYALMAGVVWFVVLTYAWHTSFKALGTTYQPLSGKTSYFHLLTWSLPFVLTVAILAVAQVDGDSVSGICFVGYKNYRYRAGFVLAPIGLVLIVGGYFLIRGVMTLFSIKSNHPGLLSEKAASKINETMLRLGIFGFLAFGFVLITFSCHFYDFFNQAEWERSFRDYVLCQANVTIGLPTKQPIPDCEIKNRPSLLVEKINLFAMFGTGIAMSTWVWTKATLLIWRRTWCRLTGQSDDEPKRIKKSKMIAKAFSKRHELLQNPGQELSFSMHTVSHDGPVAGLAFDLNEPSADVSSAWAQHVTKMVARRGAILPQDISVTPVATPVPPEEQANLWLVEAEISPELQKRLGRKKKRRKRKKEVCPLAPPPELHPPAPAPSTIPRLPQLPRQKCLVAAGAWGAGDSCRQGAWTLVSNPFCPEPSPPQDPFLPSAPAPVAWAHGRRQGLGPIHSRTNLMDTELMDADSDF

For `NC1CN(C(=O)c2ccc(N3CCN(c4nnc(Cc5ccccc5)c5ccccc45)CC3)nc2)C1` [Example 54w], the IC50 (commonly the midpoint of a concentration-inhibition curve) in experiment [1] lay in the range of 1000 to 10000 nM; in experiment [2], 10000 to 40000 nM; in experiment [3] (setting [4]) it was 1000 to 10000 nM; in experiment [3] (setting [5]), 100 to 1000 nM.
In the case of `O=C(NC1CN(C(=O)OCc2ccccc2)C1)c1ccc(N2CCN(c3nnc(Cc4ccccc4)c4ccccc34)CC2)nc1` [Example 54x], the 50% inhibitory concentration (IC50) is 100 to 1000 nM in experiment [1], under 100 nM in experiment [2], 100 to 1000 nM in experiment [3] (setting [4]) and 100 to 1000 nM in experiment [3] (setting [5]).
As for `O=C(NC1CNC1)c1ccc(N2CCN(c3nnc(Cc4ccccc4)c4ccccc34)CC2)nc1` [Example 54y], the IC50 in experiment [1], in experiment [2], in experiment [3] (setting [4]) and in experiment [3] (setting [5]) was 1000 to 10000 nM each time.
As to `O=C(c1ccc(N2CCN(c3nnc(Cc4ccccc4)c4ccccc34)CC2)nc1)N1CC(O)C1` [Example 54z], the half-inhibitory concentration (IC50) was 100 to 1000 nM in experiment [1], 100 to 1000 nM in experiment [2], 100 to 1000 nM in experiment [3] (setting [4]) and under 100 nM in experiment [3] (setting [5]).
`FC(F)(F)c1ccc(N2CCN(c3nnc(Cc4ccccc4)c4ccccc34)CC2)cc1` [Example 55, 1-Benzyl-4-[4-(4-trifluoromethyl-phenyl)-piperazin-1-yl]-phthalazine]: the IC50 in experiment [1] was 100 to 1000 nM; in experiment [2], 100 to 1000 nM; in experiment [3] (setting [4]), 1000 to 10000 nM; in experiment [3] (setting [5]), 100 to 1000 nM.
Turning to `N#Cc1ccc(N2CCN(c3nnc(Cc4cccc(C(F)(F)F)c4)c4ccccc34)CC2)nc1` [Example 56, 6-{4-[4-(3-Trifluoromethyl-benzyl)-phthalazin-1-yl]-piperazin-1-yl}-nicotinonitrile], the half-maximal inhibitory concentration (IC50) in experiment [1] is under 100 nM; in experiment [2] it was 100 to 1000 nM; in experiment [3] (setting [4]), 1000 to 10000 nM; in experiment [3] (setting [5]) it was under 100 nM.
On to `N#Cc1ccc(Cc2nnc(N3CCN(c4ccc(C#N)cn4)CC3)c3ccccc23)cc1` [Example 57], for which the IC50 was under 100 nM in experiment [1], under 100 nM in experiment [2], 100 to 1000 nM in experiment [3] (setting [4]) and under 100 nM in experiment [3] (setting [5]).
On to `COc1ccc(Cc2nnc(N3CCN(c4ccc(C#N)cn4)CC3)c3ccccc23)cc1OC` [Example 58], for which the IC50 in experiment [1], in experiment [2] and in experiment [3] (setting [5]) was 1000 to 10000 nM in each case.
As to `N#Cc1ccc(N2CCN(c3nnc(Cc4ccc(Cl)cc4)c4ccccc34)CC2)nc1` [Example 59], the concentration for half-maximal inhibition (IC50) in experiment [1] is under 100 nM; in experiment [2], under 100 nM; in experiment [3] (setting [4]), 100 to 1000 nM; in experiment [3] (setting [5]), under 100 nM.
On to `N#Cc1ccc(N2CCN(c3nnc(Cc4cccc(Cl)c4)c4ccccc34)CC2)nc1` [Example 60], for which the IC50 in experiment [1] was under 100 nM; in experiment [2], 100 to 1000 nM; in experiment [3] (setting [4]), 100 to 1000 nM; in experiment [3] (setting [5]), under 100 nM.
With `N#Cc1ccc(N2CCN(c3nnc(CCc4ccccc4)c4ccccc34)CC2)nc1` [Example 61], the 50% inhibitory concentration (IC50) in experiment [1] was under 100 nM; in experiment [2], 100 to 1000 nM; in experiment [3] (setting [4]), 1000 to 10000 nM; in experiment [3] (setting [5]), 100 to 1000 nM.
As for `N#Cc1ccc(N2CCN(c3nnc(Cc4ccc5ccccc5c4)c4ccccc34)CC2)nc1` [Example 62], the IC50 in experiment [1] was under 100 nM; in experiment [2], under 100 nM; in experiment [3] (setting [4]), 1000 to 10000 nM; in experiment [3] (setting [5]), under 100 nM.
Take `N#Cc1ccc(N2CCN(c3nnc(Cc4ccc(C(F)(F)F)cc4)c4ccccc34)CC2)nc1` [Example 63]: the half-inhibitory concentration (IC50) was 100 to 1000 nM in experiment [1], 100 to 1000 nM in experiment [2], 1000 to 10000 nM in experiment [3] (setting [4]) and 100 to 1000 nM in experiment [3] (setting [5]).
Take `COc1ccc(Cc2nnc(N3CCN(c4ccc(C#N)cn4)CC3)c3ccccc23)cc1` [Example 64]: the concentration for half-maximal inhibition (IC50) is 100 to 1000 nM in experiment [1], 100 to 1000 nM in experiment [2], 1000 to 10000 nM in experiment [3] (setting [4]) and under 100 nM in experiment [3] (setting [5]).
In the case of `N#Cc1ccc(N2CCN(c3nnc(Cc4cccc(C#N)c4)c4ccccc34)CC2)nc1` [Example 65], the 50% inhibitory concentration (IC50) in experiment [1] was 100 to 1000 nM; in experiment [2] it was 100 to 1000 nM; in experiment [3] (setting [4]), 1000 to 10000 nM; in experiment [3] (setting [5]), 100 to 1000 nM.
Turning to `N#Cc1ccc(N2CCN(c3nnc(Cc4ccc(Br)cc4)c4ccccc34)CC2)nc1` [Example 66], the IC50 is under 100 nM in experiment [1], under 100 nM in experiment [2], 100 to 1000 nM in experiment [3] (setting [4]) and under 100 nM in experiment [3] (setting [5]).
As to `N#Cc1ccc(N2CCN(c3nnc(Cc4cccc(Br)c4)c4ccccc34)CC2)nc1` [Example 67], the concentration for half-maximal inhibition (IC50) is under 100 nM in experiment [1], 100 to 1000 nM in experiment [2], 100 to 1000 nM in experiment [3] (setting [4]) and 100 to 1000 nM in experiment [3] (setting [5]).
As for `CC(c1ccccc1)c1nnc(N2CCN(c3ccc(C#N)cn3)CC2)c2ccccc12` (centres unmarked) [Example 68], the IC50 in experiment [1] is 1000 to 10000 nM; in experiment [2] it was 1000 to 10000 nM; in experiment [3] (setting [4]), 1000 to 10000 nM; in experiment [3] (setting [5]), 100 to 1000 nM.
In the case of `Cc1cccc(Cc2nnc(N3CCN(c4ccc(C#N)cn4)CC3)c3ccccc23)c1` [Example 69], the IC50 in experiment [1] is 100 to 1000 nM; in experiment [2], 100 to 1000 nM; in experiment [3] (setting [4]), 1000 to 10000 nM; in experiment [3] (setting [5]) it was under 100 nM.
As for `CC(=O)NCc1ccc(N2CCN(c3nnc(Cc4ccccc4)c4ccccc34)CC2)nc1` [Example 70, N-{6-[4-(4-Benzyl-phthalazin-1-yl)-piperazin-1-yl]-pyridin-3-ylmethyl}-acetamide], the IC50 in experiment [1] was 100 to 1000 nM; in experiment [2], 100 to 1000 nM; in experiment [3] (setting [4]), 100 to 1000 nM; in experiment [3] (setting [5]) it was under 100 nM.
In the case of `CCC(=O)NCc1ccc(N2CCN(c3nnc(Cc4ccccc4)c4ccccc34)CC2)cc1` [Example 78a], the IC50 in experiment [1] was 100 to 1000 nM; in experiment [2], 100 to 1000 nM; in experiment [3] (setting [4]), 100 to 1000 nM; in experiment [3] (setting [5]), under 100 nM.
In the case of `COCC(=O)NCc1ccc(N2CCN(c3nnc(Cc4ccccc4)c4ccccc34)CC2)cc1` [Example 78b], the IC50 is 100 to 1000 nM in experiment [1], 100 to 1000 nM in experiment [2], 100 to 1000 nM in experiment [3] (setting [4]) and under 100 nM in experiment [3] (setting [5]).
`CC(C)CC(=O)NCc1ccc(N2CCN(c3nnc(Cc4ccccc4)c4ccccc34)CC2)cc1` [Example 78c]: the IC50 in experiment [1], in experiment [2], in experiment [3] (setting [4]) and in experiment [3] (setting [5]) was under 100 nM each time.
Turning to `N#Cc1ccc(N2CCN(c3cnc(Cc4ccccc4)c4ccccc34)CC2)nc1` [Example 79, 6-[4-(1-Benzyl-isoquinolin-4-yl)-piperazin-1-yl]-nicotinonitrile], the IC50 lay within 100 to 1000 nM in experiment [1], 1000 to 10000 nM in experiment [2], 100 to 1000 nM in experiment [3] (setting [4]) and 100 to 1000 nM in experiment [3] (setting [5]).
Turning to `N#Cc1ccc(N2CCN(c3cnc(Cc4cccc(Cl)c4)c4ccccc34)CC2)nc1` [Example 81], the half-inhibitory concentration (IC50) in experiment [1] lay within 1000 to 10000 nM; in experiment [2], 10000 to 40000 nM; in experiment [3] (setting [4]), 10000 to 40000 nM; in experiment [3] (setting [5]), 1000 to 10000 nM.
`N#Cc1ccc(N2CCN(c3cnc(Cc4cccc(C(F)(F)F)c4)c4ccccc34)CC2)nc1` [Example 82]: the IC50 fell in the range of 1000 to 10000 nM in experiment [1], 1000 to 10000 nM in experiment [2], 10000 to 40000 nM in experiment [3] (setting [4]) and 1000 to 10000 nM in experiment [3] (setting [5]).
Take `N#Cc1ccc(N2CCN(c3ncc(Cc4ccccc4)c4ccccc34)CC2)nc1` [Example 83, 6-[4-(4-Benzyl-isoquinolin-1-yl)-piperazin-1-yl]-nicotinonitrile]: the half-inhibitory concentration (IC50) in experiment [1] lay in the range of 1000 to 10000 nM; in experiment [2], 1000 to 10000 nM; in experiment [3] (setting [4]), 100 to 1000 nM; in experiment [3] (setting [5]) it was 100 to 1000 nM.
